# From patent publication US20070111988A1, “Selective estrogen receptor modulators” (ELI LILLY AND COMPANY, priority 2004, published 2007)
# pIC50: −log10 of the molar value.
# Assays:
# [1] = system: estrogenic stimulation of the uterus in immature female rats; experiment: 3-Day Rat Uterus Antagonist Assay; format: in vivo; conditions: 3 days, with E2 0.1 mg/kg; for inhibition of the estrogen-induced response (uterine weight/body weight ratio): 1.0 mg/kg oral; for % antagonism / ED50: oral
# Excerpt: 3-Day Rat Uterus Antagonist Assay: This model for uterine antagonism utilizes immature (3 week old) female rats that are highly sensitive to estrogenic stimulation of the uterus given that their circulating estrogen levels are prepubertal. The uteri from immature rats are fully responsive to exogenous estrogen, yet are quiescent in the absence of exogenous estrogen. Administration of exogenous estrogen to immature rats produces a reliable elevation of uterine weight, which can be used to study uterine antagonist effects. The rats are treated with both estradiol and 4 different concentrations of a compound of the present invention for 3 days and then uterine wet weights are measured.
# Nineteen to twenty-one day old (or 45-50 g) female rats are orally treated with E2 (0.1 mg/kg, a maximal stimulatory estrogenic stimulus for reliably increasing uterine weight) and 10, 1.0, 0.1 and 0.01 mg/kg test compound for 3 days, 6 rats per group. Test compounds are dissolved in 20% β-hydroxycyclodextrin and administered by oral gavage in a volume of 0.2 mL daily (15 min. prior to the ethynyl estradiol gavage). A vehicle control, E2 alone and E2+raloxifene are also done as controls. The animals are fasted overnight following the final dose. On the following morning, the animals are weighed, then euthanized (by carbon dioxide asphyxiation) and the uteri rapidly collected (via a mid-line ventral incision) and weighed.
# Uterine weight/body weight ratios (UWR) are calculated for each animal. The percent inhibition of the estrogen-induced response is then calculated by the following formula: percent inhibition=100×(UWRestrogen−UWRtest compound/UWRestrogen−UWRcontrol). ED50 values are derived from a semi-log regression analysis of the linear aspect of the dose response curve. Both the UWR data and the percent inhibition data are statistically analyzed by one way analysis of variance (ANOVA) with post-hoc testing by Fisher's PLSD when indicated by a p≦0.05. Statistical analyses are performed using the Statview® 4.0 software package.
# mature F344 female rats = experiment: 10-Day Rat Hormone (Ovarian Stimulation) Screen; format: in vivo; conditions: oral gavage 10 days, serum about 2 hours after the 10th dose, RIA
# Description: 10-Day Rat Hormone (Ovarian Stimulation) Screen: An initial, first screen for ovarian toxicity is conducted using a 10-day rat hormone study to measure estradiol and luteinizing hormone levels after compound administration. This screen is conducted by administering compound by oral gavage for 10 days to mature (9-10 week old) F344 female rats. Trunk blood is collected by rapid decapitation for evaluation of LH and estradiol levels approximately 2 hours after the 10th dose. Serum, obtained by centrifugation, is removed and stored frozen below −60° C. until assayed. Serum levels of LH and estradiol are measured using radioimmunoassay (RIA) methods.
# Rat LH primary antibody and reference preparations (rat LH:RP-3) are obtained from Dr. A. F. Parlow, Director, Pituitary Hormones and Antisera Center, Harbor-UCLA Medical Center, Torrance, Calif. The LH assay upper limits of detection are 30 ng/mL and the lower limits of detection are 0.1 ng/mL for the 100 μl samples.
# E2 Clinical Assays. DiaSorin s.r.l., Saluggia (Vercelli), Italy. The upper limit of detection is 1000 pg/mL and the lower limit of detection is 5 pg/mL.
# [2] = system: Ishikawa human endometrial tumor cells; experiment: Ishikawa Cell Proliferation Assay, agonist mode (alkaline phosphatase readout); format: cell-based; conditions: for stimulation compared with tamoxifen: compound alone; for Emax: Homo sapiens, Ishikawa, versus the response to tamoxifen, read-out: relative % efficacy
# Description: (§1) Ishikawa Cell Proliferation Assay: This assay measures cell proliferation (using an alkaline phosphatase readout) in both an agonist mode in the presence of a compound of the present invention alone, and in an antagonist mode in which the ability of a compound of the present invention to block estradiol stimulation of growth is measured.
# (§2) Ishikawa human endometrial tumor cells are maintained in MEM (minimum essential medium, with Earle's salts and L-Glutamine, Gibco BRL, Gaithersburg, Md.), supplemented with 10% fetal bovine serum (FBS) (V/V), (Gibco BRL). One day prior to assay, growth media is changed to assay medium, DMEM/F-12 (3:1) (Dulbecco's Modified Eagle Medium:Nutrient Mixture F-12, 3:1 Mixture, phenol red-free, Gibco BRL) supplemented with 5% dextran coated charcoal stripped fetal bovine serum (DCC-FBS) (Hyclone, Logen, Utah), L-Glutamine (2 mM), MEM sodium pyruvate (1 mM), HEPES (N-[2-hydroxyethyl]piperazine-N′-[2-ethanesulfonic acid] 2 mM) all from Gibco BRL). After an overnight incubation, Ishikawa cells are rinsed with Dulbecco's Phosphate Buffered Saline (1×) (D-PBS) without Ca^+2 and Mg^+2 (Gibco BRL), and trypsinized by a 3 minute incubation with 0.25% Trypsin/EDTA, phenol red-free (Gibco BRL). Cells are resuspended in assay medium and adjusted to 250,000 cells/mL. Approximately 25,000 cells in a 100 ul media are added to flat-bottom 96 wells microculture plates (Costar 3596) and incubated at 37° C. in a 5% CO2 humidified incubator for 24 hours. The next day, serial dilutions of compounds are prepared in assay medium (at 6 times the final concentration in the assay). The assay is run in dual mode, agonist and antagonist modes.
# For the agonist mode, plates receive 25 μl/well of assay medium followed by 25 μl/well of a diluted compound of the present invention (at 6× the final concentrations). For the antagonist mode, plates receive 25 μl/well of 6 nM E2 (β-Estradiol, Sigma, St. Louis, Mo.) followed by 25 μl/well of a diluted compound of the present invention (at 6× the final concentrations). After an additional 48-hour incubation at 37° C. in a 5% CO2 humidified incubator, media is aspirated from wells and 100 μl fresh assay medium is added to each microculture. Serial dilutions of compounds are prepared and added to the cells as described above. After an additional 72 hour incubation at 37° C. in a 5% CO2 humidified incubator, the assay is quenched by removing media and rinsing plates twice in Dulbecco's Phosphate Buffered Saline (1×) (D-PBS) (Gibco BRL). The plates are dried for 5 minutes and frozen at −70° C. for at least 1 hour. The plates are then removed from the freezer and allowed to thaw at room temperature. To each well, 100 μl of 1-Step™ PNPP (Pierce Chemical Company, Rockford, Ill.) is added. After a 20-minute incubation, plates are read on a spectophotometer at 405 nm.
# (§3) The data is fitted to a linear interpolation to derive EC50 (for agonist mode) or IC50 (for antagonist mode) values. For the antagonist mode, a % efficacy for each compound is calculated versus E2 (1 nM) alone. For the agonist mode, a % efficacy for each compound is calculated versus the response to tamoxifen.
# [3] = system: uterus of mature, ovariectomized rats; experiment: 4-Day OVX Rat Uterine Agonist Assay; format: in vivo; conditions: 4 days of treatment, 3 doses
# Description: Seventy-five day old rats are ovariectomized and treatment is started 14 days later when circulating estradiol levels have reached minimal levels. After 4 days of treatment with 3 doses of a compound of the present invention, (6 rats per group) body weight, uterine wet weight and uterine eosinophil peroxidase (EPO) activity are measured. Cholesterol levels are also measured to compare relative ability to lower cholesterol with other SERMs. If there is any question of uterine stimulation, histological examination will determine epithelial cell height.
# [4] = system: Ishikawa human endometrial tumor cells; experiment: Ishikawa Cell Proliferation Assay, antagonist mode (block of estradiol stimulation); format: cell-based; conditions: for pIC50: 1 nM E2; for Emax: versus E2 (1 nM) alone, read-out: % efficacy
# Description: as §1, §2
# For the agonist mode, plates receive 25 μl/well of assay medium followed by 25 μl/well of a diluted compound of the present invention (at 6× the final concentrations). For the antagonist mode, plates receive 25 μl/well of 6 nM E2 (β-Estradiol, Sigma, St. Louis, Mo.) followed by 25 μl/well of a diluted compound of the present invention (at 6× the final concentrations). After an additional 48-hour incubation at 37° C. in a 5% CO2 humidified incubator, media is aspirated from wells and 100 μl fresh assay medium is added to each microculture. Serial dilutions of compounds are prepared and added to the cells as described above. […] After a 20-minute incubation, plates are read on a spectophotometer at 405 nm.
# as §3
Structure (SMILES),inhibition of the estrogen-induced response (uterine weight/body weight ratio) [1],stimulation compared with tamoxifen [2],also measured
"OCc1ccc2c(c1)OC(c1ccc(OCCN3CCCCC3)cc1)c1c-2ccc2cc(O)ccc12 (racemic) [Example 37, 8-Hydroxymethyl-5-[4-(2-piperidin-1-yl-ethoxy)-phenyl]-5H-6-oxa-chrysen-2-ol]",inhibit the estrogen-induced response,less stimulatory than tamoxifen,% antagonism [1]: 89%; ED50 [1]: 0.06 mpk; circulating LH levels (mature F344 female rats): did not significantly elevate; circulating estradiol levels (mature F344 female rats): did not significantly elevate
"Cl.NC(=O)c1cccc(-c2ccc3cc(O)ccc3c2Oc2ccc(OCCN3CCCCC3)cc2)c1 [Example 1, 3-{6-Hydroxy-1-[4-(2-piperidin-1-yl-ethoxy)-phenoxy]-naphthalen-2-yl}-benzamide hydrochloride]",,less stimulatory than tamoxifen,
"COC(=O)c1cccc(-c2ccc3cc(O)ccc3c2Oc2ccc(OCCN3CCCCC3)cc2)c1.Cl [Example 2, 3-{6-Hydroxy-1-[4-(2-piperidin-1-yl-ethoxy)-phenoxy]-naphthalen-2-yl}-benzoic acid methyl ester hydrochloride]",,less stimulatory than tamoxifen,
"O=C(O)C(F)(F)F.O=C(O)c1cccc(-c2ccc3cc(O)ccc3c2Oc2ccc(OCCN3CCCCC3)cc2)c1 [Example 3, 3-{6-Hydroxy-1-[4-(2-piperidin-1-yl-ethoxy)-phenoxy]-naphthalen-2-yl}-benzoic acid trifluoroacetate]",,less stimulatory than tamoxifen,
"COC(=O)c1ccc(-c2ccc3cc(O)ccc3c2Oc2ccc(OCCN3CCCCC3)cc2)cc1.Cl [Example 5, 4-{6-Hydroxy-1-[4-(2-piperidin-1-yl-ethoxy)-phenoxy]-naphthalen-2-yl}-benzoic acid methyl ester hydrochloride]",inhibit the estrogen-induced response,less stimulatory than tamoxifen,uterine eosinophil peroxidase (EPO) activity [3]: did not cause any dose-related statistically significant increase in EPO activity; circulating LH levels (mature F344 female rats): did not significantly elevate; circulating estradiol levels (mature F344 female rats): did not significantly elevate
"Cl.O=C(O)c1ccc(-c2ccc3cc(O)ccc3c2Oc2ccc(OCCN3CCCCC3)cc2)cc1 [Example 6, 4-{6-Hydroxy-1-[4-(2-piperidin-1-yl-ethoxy)-phenoxy]-naphthalen-2-yl}-benzoic acid hydrochloride]",,less stimulatory than tamoxifen,
"CN(C)C(=O)c1cccc(-c2ccc3cc(O)ccc3c2Oc2ccc(OCCN3CCCCC3)cc2)c1.Cl [Example 8, 3-{6-Hydroxy-1-[4-(2-piperidin-1-yl-ethoxy)-phenoxy]-naphthalen-2-yl}-N,N-dimethylbenzamide, hydrochloride salt]",inhibit the estrogen-induced response,less stimulatory than tamoxifen,pIC50 [4]: 8.05; Emax [4]: 95%; Emax [2]: 15%
"Cl.O=C1NCc2cc(-c3ccc4cc(O)ccc4c3Oc3ccc(OCCN4CCCCC4)cc3)ccc21 [Example 11, 5-{6-Hydroxy-1-[4-(2-piperidin-1-yl-ethoxy)-phenoxy]-naphthalen-2-yl}-2,3-dihydro-isoindol-1-one Hydrochloride]",inhibit the estrogen-induced response,less stimulatory than tamoxifen,% antagonism [1]: 79%; ED50 [1]: 0.3 mpk
"O=C(O)C(F)(F)F.O=C(O)c1cccc2c1OC(c1ccc(OCCN3CCCCC3)cc1)c1c-2ccc2cc(O)ccc12 (centres unmarked) [Example 35, 2-Hydroxy-5-[4-(2-piperidin-1-yl-ethoxy)-phenyl]-5H-6-oxa-chrysene-7-carboxylic acid trifluoroacetate]",,less stimulatory than tamoxifen,pIC50 [4]: 7.44; Emax [4]: 92%; Emax [2]: 25%
"COc1ccc2c3c(ccc2c1)-c1ccc(CO)cc1OC3c1ccc(OCCN2CCCCC2)cc1 (centres unmarked) [Example 36, {2-Methoxy-5-[4-(2-piperidin-1-yl-ethoxy)-phenyl]-5H-6-oxa-chrysen-8-yl}-methanol]",,less stimulatory than tamoxifen,
"OCc1ccc2c(c1)OC(c1ccc(OCCN3CCCCC3)cc1)c1c-2ccc2cc(O)ccc12 (centres unmarked) [Example 39, 8-Hydroxymethyl-5-[4-(2-piperidin-1-yl-ethoxy)-phenyl]-5H-6-oxa-chrysen-2-ol]",,less stimulatory than tamoxifen,
"Cl.OCc1ccc(-c2ccc3cc(O)ccc3c2Oc2ccc(OCCN3CCCCC3)cc2)cc1 [Example 41, 6-(4-Hydroxymethyl-phenyl)-5-[4-(2-piperidin-1-yl-ethoxy)-phenoxy]-naphthalen-2-ol, hydrochloride]",,less stimulatory than tamoxifen,
COc1ccc2c(Oc3ccc(OCCN4CCCCC4)cc3)c(-c3ccc(C(C)(C)O)cc3)ccc2c1 [Example 44],,less stimulatory than tamoxifen,
